Patent US20240374739A1, “BILE ACID CONJUGATE” (Curtin University, priority 2021, published 2024)
“Also recorded” adds a separate entry of the source.

Columns and labels:
[1] = test system: OC-1 cells; experiment: Cobalt chloride hypoxia assay; assay type: cell-based; settings: cells pre-treated with CoCl2 at 100 μM for 24 hours, microscopic examination
Procedure: This assay is used to determine whether an intervention can reverse hypoxic-induced cell death brought about by cobalt chloride. For this assay, cells are pre-treated with CoCl2 at 100 μM for 24 hours, followed by microscopic examination of cell morphology and viability.

[2] = test system: Amniotic membrane mesenchymal stem cells (AM-MSCs); experiment: Cytotoxicity study by MTT cell viability assay; assay type: cell-based, human; settings: 10-30 μM, 24 hours
Procedure: Amniotic membrane mesenchymal stem cells (AM-MSCs) were incubated with different concentrations (10, 15, 20, 25 and 30 uM, and DMSO control) of (A) probucol, (B) SPQ, (C) HA-1, and (D) DMSO for 24 hours. D1=DMSO control for 10 μM, D2=DMSO control for 20 μM (p<0.05; *p<0.05, **p<0.001, ***p<0.0001, ns=non-significant, n=3).
Amniotic membrane mesenchymal stem cells (AM-MSCs) were incubated with different concentrations (10, 15, 20, 25 and 30 uM, and DMSO control) of (A) probucol, (B) SPQ, (C) HA-1 and, (D) DMSO for 24 hours. D1=DMSO control for 10 μM, D2=DMSO control for 20 μM (p<0.05; *p<0.05, **p<0.001, ***p<0.0001, ns=non-significant, n=3).

[3] = test system: rat model of repeated sub-concussion; experiment: Blood-brain barrier integrity (IgG extravasation), rat model of repeated sub-concussion; assay type: in vivo, Female PVG rats; settings: rats, 12-week repeated sub-concussion
Excerpt: Female PVG rats aged 5-7 weeks were used. Under complete anaesthesia with isoflurane, a 25 g weight was dropped onto lambda of the skull from a 1 m height. This was repeated consecutively for 10 times per procedure. The procedure was repeated 3 times per week (i.e., Monday, Wednesday, Friday) for the duration of 12 weeks. Sham group rats received the same procedure without the weight drops. The probucol treatment group received probucol which was supplemented into the diet at 0.1% w/w. The HA-1 treatment group received HA-1 also in the diet at 0.2% w/w for the entire duration of the study.
The rats were then sacrificed to obtain brain tissue for further analyses.
The increase of IgG extravasation in SC rats indicates disruption of the BBB, allowing blood-borne IgG to leak into the brain.

[4] = test system: diabetic db/db mice; experiment: Novel Object Recognition Test in diabetic db/db mice (Experimental Example 5); assay type: in vivo; settings: at 14 weeks of age
Procedure: (§1) Cognitive function in diabetic db/db mice was tested with Passive Avoidance and Novel Object Recognition tests. For both tests, the higher the value, the better the memory.
(§2) The mice were administered with either probucol, HA-1 or apoCIII antisense from 5 weeks of age, and cognitive performance was tested at 14 weeks of age.

[5] = test system: diabetic db/db mice; experiment: BBB integrity (IgG extravasation) in diabetic db/db mice; assay type: in vivo; settings: for IgG extravasation in CTX: 28-week old
Excerpt: (§3) In this study, 4-5 week old diabetic db/db mice were put onto a diet containing probucol 0.1% (w/w) or HA-1 0.2% (w/w) for either 10 or 24 weeks, till the age of 14 or 28 weeks, respectively. Passive avoidance test was used to assess short-term memory. Subsequently, the mice were sacrificed to obtain plasma and brain tissue samples for further analyses.

[6] = test system: diabetic db/db mice; experiment: Oxidative stress and neuroinflammation (8dOHG, GFAP, Iba-1 expression) in diabetic db/db mice; assay type: in vivo; settings: for expression of 8dOHG in HPF: db/db mice (FIG. 28A); for expression of 8dOHG in CTX: db/db mice (FIG. 28B); for expression of GFAP in HPF: db/db mice (FIG. 28C); for expression of GFAP in CTX: db/db mice (FIG. 28D); for expression of Iba-1 in HPF: db/db mice (FIG. 28E); for expression of Iba-1 in CTX: db/db mice (FIG. 28F)
Excerpt: as §3
GFAP is a marker of astrocyte activation, which may confer anti-inflammatory effect.
Iba-1 expression indicates microglial activation, which is a surrogate marker of neuroinflammation.

[7] = test system: diabetic db/db mice; experiment: Passive Avoidance Test in diabetic db/db mice (Experimental Example 5); assay type: in vivo; settings: administered from 5 weeks of age, tested at 14 weeks
Procedure: as §1, §2

[8] = test system: Rats subjected to sub-concussion (SC); experiment: Beam walk test, brain injury (sub-concussion) study (Experimental Example 3); assay type: in vivo
Excerpt: Repeated sub-concussive head impacts are reported to impair psychomotor function. Rats were subjected to sham procedure, sub-concussion (SC) with control diet (AlN93M), SC with probucol, SC with aged garlic extract (AGE), or SC with HA-1 for 12 weeks.
Both rotarod and beam walk tests assess neuromotor function. On beam walk, the higher the slips show the more impairment. On rotarod, the lower the latency indicates the more impairment.

[9] = test system: Neurodegenerated cells (Parkinson's disease model); experiment: Adenosine triphosphate (ATP) assay, Parkinson's disease model; assay type: cell-based, human; settings: PD model; probucol 20 μM, SPQ 10 μM, HA-1 10 μM, L-Dopa 50 μM, 24 hours
Procedure: Perinatal tissue derived human stem cell model for Parkinson's disease (PD) was prepared using proprietary protocols to test the effect of new drug entities. Drug treatment was for 24 hours in all the assays.
Impaired energy metabolism and reduced ATP levels are common features of PD. Using the stem cell derived PD model, we measured ATP levels in drug treated (probucol, SPQ and HA-1 and L-Dopa) cells and compared with neurodegenerated (ND) cells.
Neurodegenerated cells were incubated with probucol (20 μM), SPQ (10 μM), HA-1 (10 μM) and L-Dopa (50 μM) for 24 hours (p<0.05; *p<0.05, **p<0.001, ***p<0.0001, ns=non-significant, n=3).

[10] = test system: OC-1 cells; experiment: Seahorse bioenergetics experiment (oxygen consumption rate) after cisplatin; assay type: cell-based
Procedure: Mitochondrial function was analysed by measuring oxygen consumption rate (OCR) using real-time Seahorse Flux Analyser XF 96 (Seahorse Bioscience, USA) with our well-established method (Kovacevic, Bozica, et al. “Novel hydrogel comprising non-ionic copolymer with various concentrations of pharmacologically active bile acids for cellular injectable gel.” Colloids and Surfaces B: Biointerfaces (2022): 113014). Briefly, the first injection was with media without glucose, with subsequent ATP synthase inhibitor oligomycin and FCCP (carbonyl cyanide-p-trifluoromethoxy phenylhydrazone) and the final injection was complex […] inhibitors Rotenone+antimycin A 77. The result was automatically generated and analysed by the wave software. The OC-1 cells were pre-treated with cisplatin at three different concentrations (20, 30 and 40 μM) for 24 or 48 hours to induce cytotoxicity prior to the seahorse bioenergetics assays.

[11] = Experimental Example 1 (FIG. 1)
[12] = Experimental Example 2 (FIG. 8)
[13] = sub-concussion, 1, 2 and 3 cm beam, at 12 weeks
[14] = sub-concussion, 2 cm beam, after 6 weeks

SMILES	cell morphology [1]	cytotoxicity by MTT cell viability assay [2, 11]	cytotoxicity by MTT cell viability assay [2, 12]	IgG extravasation in cortex (CTX) [3]	IgG extravasation in hippocampal formation (HPF) [3]	Novel Object Recognition Test preference index [4]	IgG extravasation in HPF ([5]; 14 weeks of age)	IgG extravasation in CTX [5]	IgG extravasation in HPF ([5]; 28 weeks)	expression of 8dOHG in HPF [6]	expression of 8dOHG in CTX [6]	expression of GFAP in HPF [6]	expression of GFAP in CTX [6]	expression of Iba-1 in HPF [6]	expression of Iba-1 in CTX [6]	Passive Avoidance Test latency (short-term memory) [7]	number of slips in beam walk test [8, 13]	number of slips in beam walk test [8, 14]	ATP level [9]	other results
CC(C)(Sc1cc(C(C)(C)C)c(O)c(C(C)(C)C)c1)Sc1cc(C(C)(C)C)c(O)c(C(C)(C)C)c1 [probucol, 2,6-ditert-butyl-4-[2-(3,5-ditert-butyl-4-hydroxyphenyl)sulfanylpropan-2-ylsulfanyl]phenol]	normal morphology	not toxic to the cells	not toxic to the cells	some reduction in the CTX IgG extravasation	no protection against BBB disruption in HPF	no significant effects	significantly attenuated	no beneficial effects on CTX IgG extravasation	did not show BBB protection	attenuated	attenuated	no benefits	ameliorated similarly	no beneficial effects	no beneficial effects	completely prevented the memory loss	did not show significant preventative effects	did not indicate any beneficial effects	–	–
CC(=O)O[C@@H]1CC[C@@]2(C)[C@H](CC[C@@H]3[C@@H]2CC[C@]2(C)[C@@H]([C@H](C)CCC(=O)Oc4c(C(C)(C)C)cc(SC(C)(C)Sc5cc(C(C)(C)C)c(O)c(C(C)(C)C)c5)cc4C(C)(C)C)CC[C@@H]32)C1 [HA-1, 2,6-di-tert-butyl-4-((2-((3,5-di-tert-butyl-4-hydroxyphenyl)thio)propan-2-yl)thio)phenyl (4R)-4-[(3R,5R,8R,9S,10S,13R,14S,17R)-3-acetoxy-10,13-dimethyl-2,3,4,5,6,7,8,9,11,12,14,15,16,17-tetradecahydro-1H-cyclopenta[a]phenanthren-17-yl]pentanoate]	optimal morphology	–	–	more effective than probucol in attenuating BBB disruption	more effective than probucol in attenuating BBB disruption	no significant effects	significantly attenuated	significantly reduced	significantly attenuated the BBB breakdown	better efficacy particularly in HPF	attenuated	significant recovery	ameliorated similarly	substantially reduced the expression of Iba-1	substantially reduced the expression of Iba-1	completely restore the memory; also recorded: equivalent latency to Neg control and probucol group mice	did not show significant preventative effects	significant reduction in slips	Enhanced increase in ATP levels	oxygen consumption rate (OCR) ([10]; OC-1 cells after 24 hours exposure to cisplatin (20, 30 and 40 μM)): significant and profound otoprotective effects; oxygen consumption rate (OCR) ([10]; OC-1 cells after 48 hours exposure to cisplatin (20, 30 and 40 μM)): significantly reverse the cytotoxic effects of cisplatin
CC1(C)SC2(C=C(C(C)(C)C)C(=O)C(C(C)(C)C)=C2)C2(C=C(C(C)(C)C)C(=O)C(C(C)(C)C)=C2)S1 [SPQ, 2,4,9,11-tetrakis(1,1-dimethylethyl)-14,14-dimethyl-13,15-dithiadispiro[5.0.5.3]pentadeca-1,4,8,11-tetraene-3,10-dione]	–	not toxic to the cells	not toxic to the cells	–	–	–	–	–	–	–	–	–	–	–	–	–	–	–	Enhanced increase in ATP levels	–
